Bridge positions count the residues as written; N and C are the ends. Peptide text beside a SMILES is read from it.
Key:
[1] = target: hIK1 (KCa3.1) (Homo sapiens, UniProt O15554); test: patch-clamp whole-cell recording, Ca2+-activated K+ current block; format: cell-based
Method: (§1) Electrophysiological experiments were carried out at 22-24° C. using the patch-clamp whole-cell recording mode. Cells were bathed with mammalian Ringer's solution (in mM): 160 NaCl, 4.5 KCl, 2 CaCl2, 1 MgCl2, and 10 HEPES (pH 7.4 with NaOH), with an osmolarity of 290-320 mOsm. […] A syringe-driven perfusion device was used to exchange the external recording bath solution. Two internal pipette solutions were used, one for measuring voltage-gated K^+ currents that contained (in mM): 155 KF, 2 MgCl2, 10 HEPES, and 10 EGTA (pH 7.2 with KOH), with an osmolarity of 290-320 mOsm and another for measuring Ca^2+-activated K^+ currents that contained (in mM): 135 K-aspartate, 8.7 CaCl2, 2 MgCl2, 10 EGTA, 10 HEPES (pH 7.2 with KOH), with an osmolarity of 290-320 mOsm. A free [Ca^2+]i of 1 μM was calculated. All currents through voltage-gated K^+ channels were elicited by 200 ms depolarising voltage steps from −80 to +40 mV. Potassium currents through KCa1.1, KCa2.1 and KCa3.1 were elicited by 1 μM internal [Ca^2+]i and 400 ms voltage ramps from −120 to 0 mV (for KCa3.1 channel and KCa1.1 channel) and from −120 to +40 mV (for KCa2.1 channel). Electrodes were pulled from glass capillaries (Science Products, Germany), and fire-polished to resistances of 2.5-5 MΩ. Membrane currents were measured with an EPC-9 or EPC-10 patch-clamp amplifier (HEKA Elektronik, Lambrecht, Germany) interfaced to a Macintosh computer running acquisition and analysis software (Pulse and PulseFit). When voltage-gated K^+ currents were measured, the capacitive and leak currents were subtracted using a P/10 procedure. Series resistance compensation (>80%) was used for currents above 2 nA. The holding potential was −80 mV in all experiments.

[2] = target: mKv1.3 (Mus musculus, UniProt P16390); test: patch-clamp whole-cell recording, K+ current block; format: cell-based
Method: as §1

[3] = target: mKv1.1 (Mus musculus, UniProt P16388); test: patch-clamp whole-cell recording, K+ current block; format: cell-based
Method: as §1

[4] = toxicity in vivo, LD50 after intracerebroventricular injection; details: mouse, icv or intrathecal, 20 g C57/BL6 mice
Method: Groups of six to eight mice per dose were injected with 5 μl peptide solution containing 0.1% (w/v) bovine serum albumin and 0.9% (w/v) NaCl. The LD50 values are set out in Table 5.

[5] = target: hKv1.2 (human (only by the printed prefix h)) (UniProt P16389)
[6] = target: mKv1.3 (mouse (only by the printed prefix m)) (UniProt P16390)
[7] = target: hKv3.2 (human (only by the printed prefix h)) (UniProt Q96PR1)
[8] = target: mKv1.1 (mouse (only by the printed prefix m)) (UniProt P16388)
[9] = target: hIK1 (human (only by the printed prefix h)) (UniProt O15554)
[10] = target: hKv1.2 (Homo sapiens, UniProt P16389); test: patch-clamp whole-cell recording, K+ current block; format: cell-based
Method: as §1

Sequence of mKv1.3 (P16390 whole entry): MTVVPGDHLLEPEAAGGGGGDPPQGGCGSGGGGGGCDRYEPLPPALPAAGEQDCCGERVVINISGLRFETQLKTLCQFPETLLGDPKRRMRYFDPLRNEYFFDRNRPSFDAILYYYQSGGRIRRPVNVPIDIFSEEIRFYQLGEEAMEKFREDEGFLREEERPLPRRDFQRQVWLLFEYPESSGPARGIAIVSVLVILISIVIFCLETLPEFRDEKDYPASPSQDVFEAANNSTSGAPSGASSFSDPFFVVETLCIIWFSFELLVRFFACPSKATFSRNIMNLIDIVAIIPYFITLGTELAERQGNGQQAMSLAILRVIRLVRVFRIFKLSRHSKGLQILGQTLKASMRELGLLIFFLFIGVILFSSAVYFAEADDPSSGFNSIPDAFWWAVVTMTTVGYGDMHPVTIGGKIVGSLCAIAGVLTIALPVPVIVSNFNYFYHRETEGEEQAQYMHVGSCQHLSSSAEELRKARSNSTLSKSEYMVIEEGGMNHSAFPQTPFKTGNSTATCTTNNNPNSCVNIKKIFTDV
Sequence of mKv1.1 (P16388 whole entry): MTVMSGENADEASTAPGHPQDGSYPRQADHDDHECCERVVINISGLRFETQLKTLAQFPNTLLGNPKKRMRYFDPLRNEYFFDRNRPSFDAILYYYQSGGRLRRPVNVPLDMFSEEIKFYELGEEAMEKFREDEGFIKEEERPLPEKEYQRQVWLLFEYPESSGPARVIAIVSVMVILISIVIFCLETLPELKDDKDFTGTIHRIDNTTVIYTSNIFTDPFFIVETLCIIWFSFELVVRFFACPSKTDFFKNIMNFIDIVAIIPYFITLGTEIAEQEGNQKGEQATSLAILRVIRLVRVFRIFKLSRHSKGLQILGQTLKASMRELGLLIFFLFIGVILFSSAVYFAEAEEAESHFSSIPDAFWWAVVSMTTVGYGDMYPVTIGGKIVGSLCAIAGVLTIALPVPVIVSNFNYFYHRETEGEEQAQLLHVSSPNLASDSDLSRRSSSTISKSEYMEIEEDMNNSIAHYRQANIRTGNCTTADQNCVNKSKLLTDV
Sequence of hIK1 (KCa3.1) (O15554 whole entry, the tested form may be a part): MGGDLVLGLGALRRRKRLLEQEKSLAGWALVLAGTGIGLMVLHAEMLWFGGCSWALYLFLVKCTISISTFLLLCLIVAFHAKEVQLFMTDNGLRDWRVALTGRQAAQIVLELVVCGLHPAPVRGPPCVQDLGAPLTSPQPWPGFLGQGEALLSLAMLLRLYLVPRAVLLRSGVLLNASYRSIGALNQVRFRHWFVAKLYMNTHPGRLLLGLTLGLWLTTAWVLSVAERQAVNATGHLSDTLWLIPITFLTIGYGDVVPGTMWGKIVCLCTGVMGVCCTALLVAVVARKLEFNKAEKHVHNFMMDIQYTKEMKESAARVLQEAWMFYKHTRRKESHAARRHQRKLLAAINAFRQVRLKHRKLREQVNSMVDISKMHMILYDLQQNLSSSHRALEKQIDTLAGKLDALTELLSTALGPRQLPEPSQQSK
Sequence of hKv1.2 (P16389 whole entry): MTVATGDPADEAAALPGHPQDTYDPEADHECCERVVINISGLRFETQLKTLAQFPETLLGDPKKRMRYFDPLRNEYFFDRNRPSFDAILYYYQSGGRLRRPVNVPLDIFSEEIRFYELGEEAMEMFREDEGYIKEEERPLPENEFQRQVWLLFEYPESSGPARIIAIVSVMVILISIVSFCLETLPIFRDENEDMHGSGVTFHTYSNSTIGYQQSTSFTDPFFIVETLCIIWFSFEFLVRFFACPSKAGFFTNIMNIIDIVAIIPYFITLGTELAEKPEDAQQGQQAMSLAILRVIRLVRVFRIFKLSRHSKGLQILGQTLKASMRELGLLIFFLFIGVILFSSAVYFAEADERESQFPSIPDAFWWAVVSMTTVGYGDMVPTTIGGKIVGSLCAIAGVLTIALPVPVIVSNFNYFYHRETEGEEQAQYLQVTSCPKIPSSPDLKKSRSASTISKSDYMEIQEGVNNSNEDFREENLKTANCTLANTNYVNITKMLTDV

| Compound | IC50 [1] | IC50 [2] | IC50 [3] | LD50 [4] | ID50 [5] | ID50 [6] | ID50 [7] | ID50 [8] | ID50 [9] | IC50 [10] |
| --- | --- | --- | --- | --- | --- | --- | --- | --- | --- | --- |
| CC[C@H](C)[C@@H]1NC(=O)[C@H](CCCCN)NC(=O)[C@@H](NC(=O)[C@H](CCCCN)NC(=O)[C@@H](NC(=O)[C@H](CC(N)=O)NC(=O)[C@@H](NC(=O)[C@@H](NC(=O)[C@@H](NC(=O)CN)C(C)C)[C@@H](C)CC)[C@@H](C)CC)C(C)C)CSSC[C@@H]2NC(=O)[C@H](CCCCN)NC(=O)CNC(=O)[C@H](Cc3ccccc3)NC(=O)[C@H](CCCNC(=N)N)NC(=O)[C@H](CCSC)NC(=O)CNC(=O)[C@H](C)NC(=O)[C@H](CC(=O)O)NC(=O)[C@H](CCCCN)NC(=O)[C@@H]3CSSC[C@@H](C(=O)N[C@H](C(=O)N4CCC[C@H]4C(=O)N[C@@H](CCCCN)C(N)=O)[C@@H](C)O)NC(=O)[C@H](Cc4c[nH]cn4)NC(=O)[C@H](CSSC[C@H](NC(=O)[C@H](CCC(N)=O)NC(=O)[C@H](CCCNC(=N)N)NC(=O)[C@H](CO)NC1=O)C(=O)N[C@@H](CC(C)C)C(=O)N[C@@H](CCCCN)C(=O)N1CCC[C@H]1C(=O)N3)NC(=O)[C@H](CCCCN)NC(=O)CNC(=O)[C@H](CC(N)=O)NC(=O)[C@H](CCSC)NC2=O (H-GVIINVKCKISRQCLKPCKDAGMRFGKCMNGKCHCTPK-NH2; disulfide 8-28, 14-33, 18-35) | > 1000 nM | 0.075 ± 0.006 nM | 0.36 ± 0.04 nM | 2.25 µg/kg | – | – | – | – | – | – |
| [A^34]-OsK1 (peptide) | – | – | – | – | 65 nM | 0.034 nM | > 1000 nM | 15.8 nM | > 1000 nM | – |
| CC[C@H](C)[C@@H]1NC(=O)[C@H](CCCCN)NC(=O)[C@@H](NC(=O)[C@H](CCCCN)NC(=O)[C@@H](NC(=O)[C@H](CC(N)=O)NC(=O)[C@@H](NC(=O)[C@@H](NC(=O)[C@@H](NC(=O)CN)C(C)C)[C@@H](C)CC)[C@@H](C)CC)C(C)C)CSSC[C@@H]2NC(=O)[C@H](CCCCN)NC(=O)CNC(=O)[C@H](Cc3ccccc3)NC(=O)[C@H](CCCNC(=N)N)NC(=O)[C@H](CCSC)NC(=O)CNC(=O)[C@H](C)NC(=O)[C@H](CC(=O)O)NC(=O)[C@H](CCCCN)NC(=O)[C@@H]3CSSC[C@@H](C(=O)N[C@@H](Cc4ccc(O)cc4)C(=O)N4CCC[C@H]4C(=O)N[C@@H](CCCCN)C(=O)O)NC(=O)[C@H](Cc4c[nH]cn4)NC(=O)[C@H](CSSC[C@H](NC(=O)[C@H](CCC(N)=O)NC(=O)[C@H](CCCNC(=N)N)NC(=O)[C@H](CO)NC1=O)C(=O)N[C@@H](CC(C)C)C(=O)N[C@@H](CCCCN)C(=O)N1CCC[C@H]1C(=O)N3)NC(=O)[C@H](CCCCN)NC(=O)CNC(=O)[C@H](CC(N)=O)NC(=O)[C@H](CCSC)NC2=O (H-GVIINVKCKISRQCLKPCKDAGMRFGKCMNGKCHCYPK-OH; disulfide 8-28, 14-33, 18-35) | 885 ± 18 nM | 0.122 ± 0.007 nM | 34.4 ± 0.3 nM | 9 µg/kg | – | – | – | – | – | 231.8 ± 0.1 nM |
